One may read the IC50 as the point on the concentration scale where inhibition reaches its midpoint.

This passage reports IC50 results from patent US20260265265A1, “NOVEL BENZIMIDAZOLONE DERIVATIVE COMPOUND AS AUTOTAXIN INHIBITOR” (LG CHEM, LTD., priority 2023, published 2026).

Structures are written as SMILES. Where only a bound is given, the exact number is not on record here.

This assay addresses T1, Recombinant Human ENPP-2/Autotaxin (Homo sapiens, UniProt Q13822).
T1 construct: purchased R&D systems 5255-EN
Put plainly: LysoPLD activity measurement (autotaxin enzyme inhibition, choline release, TOOS reagent). Particulars: LysoPLD inhibitory activity; substrate 14:0 LysoPC; absorbance at 555 nm. It counts as biochemical. The method in brief:
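Autotaxin lysoPLD activity was read as choline released from 14:0 LysoPC, detected by TOOS reagent absorbance. Compound was preincubated 30 min, then substrate diluted to 300 μM was added and the reaction ran 90 minutes at 37° C. Controls contained 1% DMSO.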
Consider `O=C(O)c1cccc(C2(n3c(=O)n(-c4ccc(C5CCN(C6COC6)CC5)cc4)c4cc(Cl)ccc43)CC2)c1` [Example 260, 3-(1-(5-chloro-3-(4-(1-(oxetan-3-yl)piperidin-4-yl)phenyl)-2-oxo-2,3-dihydro-1H-benzo[d]imidazol-1-yl)cyclopropyl)benzoic acid], for which the IC50 is less than 10 nM.
Turning to `O=C(O)c1cccc(C2(n3c(=O)n(-c4ccc(C5CCOCC5)nc4)c4cc(Cl)ccc43)CC2)c1` [Example 261, 3-(1-(5-chloro-2-oxo-3-(6-(tetrahydro-2H-pyran-4-yl)pyridin-3-yl)-2,3-dihydro-1H-benzo[d]imidazol-1-yl)cyclopropyl)benzoic acid], the IC50 lay within 10 to 100 nM.
Consider `O=C(O)c1cc(F)cc(C2(n3c(=O)n(-c4ccc(C5CCOCC5)nc4)c4cc(Cl)ccc43)CC2)c1` [Example 262, 3-(1-(5-chloro-2-oxo-3-(6-(tetrahydro-2H-pyran-4-yl)pyridin-3-yl)-2,3-dihydro-1H-benzo[d]imidazol-1-yl)cyclopropyl)-5-fluorobenzoic acid], for which the IC50 was in the range of 10 to 100 nM.
For `O=C(O)c1cccc(C2(n3c(=O)n(-c4ccc(-c5nnc(C6CC6)o5)cc4)c4cc(Cl)ccc43)CC2)c1` [Example 263, 3-(1-(5-chloro-3-(4-(5-cyclopropyl-1,3,4-oxadiazol-2-yl)phenyl)-2-oxo-2,3-dihydro-1H-benzo[d]imidazol-1-yl)cyclopropyl)benzoic acid], the IC50 is less than 10 nM.
Take `O=C(O)c1cccc(C2(n3c(=O)n(-c4ccc(-c5nnc(C6CCCCCC6)o5)cc4)c4cc(Cl)ccc43)CC2)c1` [Example 264, 3-(1-(5-chloro-3-(4-(5-cycloheptyl-1,3,4-oxadiazol-2-yl)phenyl)-2-oxo-2,3-dihydro-1H-benzo[d]imidazol-1-yl)cyclopropyl)benzoic acid]: the IC50 lay in the range of 10 to 100 nM.
Under `O=C(O)c1cccc(C2(n3c(=O)n(-c4ccc(-c5nnc(C6CCCCC6)o5)cc4)c4cc(Cl)ccc43)CC2)c1` [Example 265, 3-(1-(5-chloro-3-(4-(5-cyclohexyl-1,3,4-oxadiazol-2-yl)phenyl)-2-oxo-2,3-dihydro-1H-benzo[d]imidazol-1-yl)cyclopropyl)benzoic acid] stands 10 to 100 nM; under `O=C(O)c1cccc(C2(n3c(=O)n(-c4ccc(-c5nnc(C6CCCC6)o5)cc4)c4cc(Cl)ccc43)CC2)c1` [Example 266, 3-(1-(5-chloro-3-(4-(5-cyclopentyl-1,3,4-oxadiazol-2-yl)phenyl)-2-oxo-2,3-dihydro-1H-benzo[d]imidazol-1-yl)cyclopropyl)benzoic acid], less than 10 nM; under `O=C(O)c1cccc(C2(n3c(=O)n(-c4ccc(-c5nnc(C6CCOCC6)o5)cc4)c4cc(Cl)ccc43)CC2)c1` [Example 267, 3-(1-(5-chloro-2-oxo-3-(4-(5-(tetrahydro-2H-pyran-4-yl)-1,3,4-oxadiazol-2-yl)phenyl)-2,3-dihydro-1H-benzo[d]imidazol-1-yl)cyclopropyl)benzoic acid], less than 10 nM.
`O=C(O)c1cccc(C2(n3c(=O)n(-c4ccc(-c5nnc(C6CCOCC6)o5)cc4)c4cc(Cl)ccc43)CC2)c1F` [Example 268, 3-(1-(5-chloro-2-oxo-3-(4-(5-(tetrahydro-2H-pyran-4-yl)-1,3,4-oxadiazol-2-yl)phenyl)-2,3-dihydro-1H-benzo[d]imidazol-1-yl)cyclopropyl)-2-fluorobenzoic acid]: the IC50 was less than 10 nM.
As to `CCCn1cc(-c2ccc(-n3c(=O)n(C4(c5cccc(C(=O)O)c5)CC4)c4ccc(Cl)cc43)cc2)cn1` [Example 269, 3-(1-(5-chloro-2-oxo-3-(4-(1-propyl-1H-pyrazol-4-yl)phenyl)-2,3-dihydro-1H-benzo[d]imidazol-1-yl)cyclopropyl)benzoic acid], the IC50 was less than 10 nM.
Turning to `CCCn1cc(-c2ccc(-n3c(=O)n(C4(c5cccc(C(=O)O)c5)CC4)c4ncc(Cl)cc43)cc2)cn1` [Example 270, 3-(1-(6-chloro-2-oxo-1-(4-(1-propyl-1H-pyrazol-4-yl)phenyl)-1,2-dihydro-3H-imidazo[4,5-b]pyridin-3-yl)cyclopropyl)benzoic acid], the IC50 is less than 10 nM.
